Data on two compounds can be found in patent US20240336617A1, “Substituted Bimane Compounds and Methods of Use Thereof” (THE TRUSTEES OF THE UNIVERSITY OF PENNSYLVANIA, priority 2023, published 2024).

Data set [1] concerns αS fibrils versus tau fibrils. As to the kind of experiment: Amyloid selectivity by plate reader, αS versus tau fibrils. The class given is binding. The procedure: Experiments were performed on the Tecan Spark in Greiner 96 well flat black ½ area plates using the following parameters: excitation and emission band widths 5 nm, lag time 0 μs, integration time 40 μs. A 10 mM DMSO stock solution of probes (7j-7m) and 100 μM stock of αS fibrils were used in the study described herein.

For data set [2], the target named is T1, amplified αS fibrils (AFs) from AD patient brain extracts (Homo sapiens, UniProt P37840).
T1 construct: made in house; host or cells: recombinant αS monomer, seeded with sarkosyl-insoluble extract of human frontal cortex (AD or PDD)
Description: Fluorescence measurements with AD patient cases (lysate, AFs, PFFs). The format is binding. Conditions: lysate or AFs and probe 1 μM. The method, then: All procedures were performed in accordance with local institutional review board guidelines. Written informed consent for autopsy and analysis of tissue sample data was obtained either from patients themselves or their next of kin. Frozen postmortem human frontal cortex brain tissues from three patients diagnosed with Alzheimer's disease (AD) and three patients diagnosed with Parkinson's disease with dementia (PDD) were selected for sequential extraction of αS aggregates based on a high burden of αS pathology determined by immunohistochemical staining. […] These final sarkosyl-insoluble fractions are referred to as “brain extracts.: The amount of αS in the brain extracts was determined by sandwich ELISA using Syn9027, a mono-clonal antibody (Mab) to αS, and the protein concentrations were examined by bicinchoninic acid (BCA) assay. […]
(§1) Brain-derived αS aggregates in extract samples from three AD and three PDD cases (FIG. 38A) were used as seeds for templated aggregation of recombinant αS monomer. […] After seven days of incubation, amplification progress was determined by removing an aliquot and diluting tenfold in DPBS to a final αS concentration of 3.5 μM. […] Equal volumes of supernatant and pellet fractions were analyzed on SDS-PAGE gels and Western blot, with amplified aggregates migrating to the pellet fraction (FIG. 38B). […]

The conditions of data set [3]: background statement; cited from earlier work.
Data set [4] has as its target T2, amplified αS fibrils (AFs) from PDD patient brain extracts (Homo sapiens, UniProt P37840).
T2 construct: made in house; host or cells: recombinant αS monomer, seeded with sarkosyl-insoluble extract of human frontal cortex (AD or PDD)
Description: Fluorescence measurements with PDD patient cases (lysate, AFs, PFFs). The format is binding. Conditions: lysate or AFs and probe 1 μM. The method, then:
All procedures were performed in accordance with local institutional review board guidelines. Written informed consent for autopsy and analysis of tissue sample data was obtained either from patients themselves or their next of kin. Frozen postmortem human frontal cortex brain tissues from three patients diagnosed with Alzheimer's disease (AD) and three patients diagnosed with Parkinson's disease with dementia (PDD) were selected for sequential extraction of αS aggregates based on a high burden of αS pathology determined by immunohistochemical staining. In brief, 5-10 g of frontal cortical gray matter were homogenized in five volumes (W/V) of high-salt (HS) buffer (50 mM Tris-HCl pH 7.4, 750 mM NaCl, 10 mM NaF, 5 mM EDTA) with protease and protein phosphatase inhibitors, incubated on ice for 20 min and centrifuged at 100,000×g for 30 min. The pellets were then re-extracted with HS buffer, followed by sequential extractions with five volumes of 1% Triton X-100-containing HS buffer and 1% Triton X-100-containing HS buffer with 30% sucrose. The pellets were then re-suspended and homogenized in 1% sarkosyl-containing HS buffer, rotated at room temperature for 2 h or at 4° C. overnight and centrifuged at 100,000×g for 30 min. […] These final sarkosyl-insoluble fractions are referred to as “brain extracts.: The amount of αS in the brain extracts was determined by sandwich ELISA using Syn9027, a mono-clonal antibody (Mab) to αS, and the protein concentrations were examined by bicinchoninic acid (BCA) assay. […]
as §1

The target in data set [5] is T3, Aβ1-42 fibrils (Homo sapiens, UniProt P05067).
T3 construct: The β-amyloid (1-42) peptide, human; purchased Genscript RP10017
T3 sequence (P05067 672-713): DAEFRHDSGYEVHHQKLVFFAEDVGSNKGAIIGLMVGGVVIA
As to the kind of experiment: Fluorescence and excitation spectra with Aβ1-42 fibrils. The class given is binding. The method, then: Fluorescence measurements were performed using a PTI QuantaMaster™ 40 fluorescence spectrometer. Fluorescence spectra of 10 μM probes (concentrated stock solution prepared as 10 mM in DMSO) (7j, 7k, 7l, 7m, and ThT) in PBS buffer were measured in the absence and presence of 50 μM Aβ1-42 fibrils (stock solution 1 mM Aβ1-42 in 10 mM phosphate buffer, pH 7.4).
Excitation spectral measurements were performed using a PTI QuantaMaster™ 40 fluorescence spectrometer. Excitation spectra of 10 μM probes (concentrated stock solution prepared as 10 mM in DMSO) (7j, 7k, 7l, 7m, and ThT) in PBS buffer were measured in the absence and presence of 50 μM Aβ1-42 fibrils (stock solution 1 mM Aβ1-42 in phosphate buffer).
Fluorescence measurements were performed using a PTI QuantaMaster™ 40 fluorescence spectrometer. Fluorescence spectra of 10 μM probes (concentrated stock solution prepared as 10 mM in DMSO) (5j, 5k and ThT) in PBS buffer were measured in the absence and presence of 50 μM Ab1-42 fibrils (stock solution 1 mM Ab1-42 in 10 mM phosphate buffer, pH 7.4).
Excitation spectral measurements were performed using a PTI QuantaMaster 40 fluorescence spectrometer. Excitation spectra of 10 μM probes (concentrated stock solution prepared as 10 mM in DMSO) (5j, 5k and ThT) in PBS buffer were measured in the absence and presence of 50 μM Ab1-42 fibrils (stock solution 1 mM Ab1-42 in phosphate buffer). […]

Data set [6] is described as follows: Fluorescent quantum yield (QY) measurements. The class given is physicochemical. An outline of the steps: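 Fluorescence quantum yield was measured for each dye by first recording the incident excitation light spectrum with 1 mL of solvent. JASCO Quantum Yield Software then computed QY as the dye's fluorescence intensity divided by the drop in incident light intensity between dye-absent and dye-present samples. A full incident excitation spectrum with this setup needs an excitation wavelength of at least 360 nm.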

A short description of data set [7]: Molar absorptivity determination.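 Also: molar absorptivity derived from UV-Vis absorbance spectra recorded for each derivative on a spectrometer.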 The format is physicochemical.
Description: The absorbance spectrum of each derivative (150 μL) was measured on a Thermo Scientific Genesys 150 UV-Vis spectrometer, using 50:50 ACN/PBS as a blank.
Molar absorptivity determination. […] The absorbance spectrum of each derivative (150 μL) was measured on a Thermo Scientific Genesys 150 UV-Vis spectrometer, using 50:50 ACN/PBS as a blank.
Data set [8] is described as follows: Absorbance measurements (UV-Vis). Conditions: 25 μM.
Description: Samples were individually diluted to the final concentration of 25 μM (500 μL) using 50:50 acetonitrile in phosphate buffered saline (ACN/PBS). The absorbance spectrum of each derivative (150 μL) was measured on a Thermo Scientific Genesys 150 UV-Vis spectrometer, using 50:50 ACN/PBS as a blank.
Data set [9] can be described thus: Fluorescence (emission) measurements.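 Also: fluorescence emission spectra recorded on a spectrofluorometer, with each compound excited at its own absorption maximum.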 The class given is physicochemical.
Description: The fluorescence spectrum of each derivative (150 μL) was measured on a Photon Technology International (PTI) QuantaMaster™ 40 fluorescence spectrometer by excitation at the maximum absorption wavelength for each compound.
The fluorescence spectrum of each derivative (150 μL) was measured on a Photon Technology International (PTJ) QuantaMaster™ 40 fluorescence spectrometer by excitation at the maximum absorption wavelength for each compound.

“Also recorded” adds a separate entry of the source. Like-named read-outs stand apart in the source and are kept apart here.

Turning to `Cc1ccc2c(c1)sc(-c1ccc(N(C)C)cc1)[n+]2C.[Cl-]` [ThT, Thioflavin-T, reference compound], in data set [1], the “turn on with αS and tau fibrils” value was “high turn on with both αS and tau; also recorded: high turn-on with both αS and tau”. The “fluorescence detection of AD amplified fibrils (AFs)” value in [2] is recorded as “barely registers significance for detection of AFs in AD samples”. Besides, in [3], the Stokes shift was ~50 nm. In addition, in data set [4], the “fluorescence detection of PDD amplified fibrils (AFs)” value is “does not effectively detect these amplified fibrils; also recorded: unable to differentiate the lysates and AFs of PDD samples”.

With `Cc1c(C)n2c(/C=C/c3nc4ccc(N(C)C)cc4s3)c(C)c(=O)n2c1=O` [Compound 8f, (E)-3-(2-(6-(dimethylamino)benzo[d]thiazol-2-yl)vinyl)-2,5,6-trimethyl-1H,7H-pyrazolo[1,2-a]pyrazole-1,7-dione], the “fluorescence turn on with Aβ1-42 fibrils” value in [5] is listed as “high turn on of fluorescence in the presence of PFFs; also recorded: selective fluorescence increases in the presence of Aβ1-42 fibrils”. Besides, the figures for the Q.Y. in data set [6] (ACN only) and in data set [6] (ACN:PBS (50:50 v/v)) were 44.2% and 0.77%, respectively. Besides, the ε was found to be 25212 M⁻¹ cm⁻¹ in data set [7] (ACN only) and 22370 M⁻¹ cm⁻¹ in data set [7] (ACN:PBS (50:50 v/v)). Moreover, the “Abs. λabs” value in data set [8] (ACN only) is listed as 435 nm; in data set [8] (ACN:PBS (50:50 v/v)), 447 nm. Moreover, the Stokes shift is 189 nm in data set [9] (ACN only) and 195 nm in data set [9] (ACN:PBS (50:50 v/v)). Moreover, in data set [9] (ACN only, 25 μM), the “Em. λem” value is recorded as 624 nm.
